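Growth conditions: 96-well plates. Treatment: test compound, 48 hours, 5 concentrations. Analysis: linear interpolation between bracketing concentrations; unreached endpoints set to highest concentration. GI50 = concentration required for 50% inhibition of growth.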 Active and inactive are the calls of the source. Rule as the data show it: active = GI50 up to about 1.1 µM and inactive = higher.
Columns and labels:
Assay in all cases: growth of human tumour cells (NCI), 48 h
[1] = test system: EKVX
[2] = test system: NCI/ADR-RES
[3] = test system: SF-268
[4] = test system: SNB-19
[5] = test system: SK-MEL-2
[6] = test system: UO-31
[7] = test system: HOP-92
[8] = test system: IGROV-1
[9] = test system: RXF 393
[10] = test system: SK-OV-3
[11] = test system: SN12C
[12] = test system: A549
[13] = test system: PC-3
[14] = test system: K562
[15] = test system: OVCAR-8
[16] = test system: NCI-H23
[17] = test system: OVCAR-3
[18] = test system: HL-60

SMILES | GI50 [1] | GI50 [2] | GI50 [3] | GI50 [4] | GI50 [5] | GI50 [6] | GI50 [7] | GI50 [8] | GI50 [9] | GI50 [10] | GI50 [11] | GI50 [12] | GI50 [13] | GI50 [14] | GI50 [15] | GI50 [16] | GI50 [17] | GI50 [18]
Cc1ccc(C2SC(=N)Nc3c2c(C)nn3C(=O)c2ccccc2O)cc1 (stereo not drawn) | > 10 µM (inactive) | > 10 µM (inactive) | 9.44 µM (inactive) | > 10 µM (inactive) | 6.31 µM (inactive) | 6.87 µM (inactive) | 0.475 µM (active) | 2.81 µM (inactive) | > 10 µM (inactive) | 3.3 µM (inactive) | > 10 µM (inactive) | 3.16 µM (inactive) | > 10 µM (inactive) | 4.35 µM (inactive) | > 10 µM (inactive) | 7 µM (inactive) | > 10 µM (inactive) | 
CC(C)N(C(=O)c1ccc(NCc2cc(O)ccc2O)cc1)C(C)C | 14.7 µM (inactive) | 14.8 µM (inactive) | 17.6 µM (inactive) | 19.2 µM (inactive) | 22.3 µM (inactive) | 9.44 µM (inactive) | 11.9 µM (inactive) | 17.7 µM (inactive) | 13.1 µM (inactive) | 35.3 µM (inactive) | 18.2 µM (inactive) | 26.2 µM (inactive) | 18.8 µM (inactive) | 20.4 µM (inactive) | 14.4 µM (inactive) | 17.9 µM (inactive) | 11.6 µM (inactive) | 2.26 µM (inactive)
[O-][n+]1onc(-c2ccccc2)c1CN1CCOCC1 | > 100 µM (inactive) | > 100 µM (inactive) | > 100 µM (inactive) | > 100 µM (inactive) | > 100 µM (inactive) | 77.1 µM (inactive) | > 100 µM (inactive) | 80 µM (inactive) | > 100 µM (inactive) | > 100 µM (inactive) | > 100 µM (inactive) | > 100 µM (inactive) | 77.8 µM (inactive) | 51.2 µM (inactive) | > 100 µM (inactive) | > 100 µM (inactive) | 93.1 µM (inactive) | 20.7 µM (inactive)
Cc1cnc2nc(-c3cccc4ccccc34)cc(O)c2c1 | 0.00282 µM (active) | 0.000428 µM (active) | 0.000516 µM (active) | 0.00332 µM (active) | 0.000335 µM (active) | 0.00242 µM (active) | 0.182 µM (active) | 0.00552 µM (active) | 0.000346 µM (active) | 0.000706 µM (active) | 0.00869 µM (active) | 0.0014 µM (active) | 0.00121 µM (active) | 0.000462 µM (active) | 0.00251 µM (active) | 0.00179 µM (active) | 0.000281 µM (active) | 0.000232 µM (active)
C(=C\c1cccs1)/c1cccc(/C=C/c2cccs2)n1 | > 100 µM (inactive) | > 100 µM (inactive) | 2.61 µM (inactive) | 78.9 µM (inactive) | > 100 µM (inactive) | 30.3 µM (inactive) | > 100 µM (inactive) | 50 µM (inactive) | > 100 µM (inactive) | > 100 µM (inactive) | 61 µM (inactive) | 60.7 µM (inactive) | > 100 µM (inactive) | > 100 µM (inactive) | 60.5 µM (inactive) | > 100 µM (inactive) | 50.8 µM (inactive) | > 100 µM (inactive)
c1ccc(C2(c3cc4ccccc4[nH]3)OCCO2)nc1 | > 100 µM (inactive) | > 100 µM (inactive) | > 100 µM (inactive) | > 100 µM (inactive) | > 100 µM (inactive) | > 100 µM (inactive) | > 100 µM (inactive) | > 100 µM (inactive) | > 100 µM (inactive) | > 100 µM (inactive) |  | > 100 µM (inactive) | > 100 µM (inactive) |  | > 100 µM (inactive) | > 100 µM (inactive) | > 100 µM (inactive) | > 100 µM (inactive)
Cn1c(=O)c2nc3nnc(C#N)c(N)n3c2n(C)c1=O | > 100 µM (inactive) | > 100 µM (inactive) | > 100 µM (inactive) |  | > 100 µM (inactive) | 50.6 µM (inactive) | 31.8 µM (inactive) | 87.3 µM (inactive) | 79.4 µM (inactive) | > 100 µM (inactive) | > 100 µM (inactive) | > 100 µM (inactive) | > 100 µM (inactive) | > 100 µM (inactive) | > 100 µM (inactive) |  | > 100 µM (inactive) | > 100 µM (inactive)
CCOc1ccc(N/C(Cl)=C(Cl)\C(=C(\Nc2ccc(OCC)cc2)n2nnc3ccccc32)[N+](=O)[O-])cc1 | 12.2 µM (inactive) | 15.2 µM (inactive) | 6.98 µM (inactive) | 17.4 µM (inactive) | 16.7 µM (inactive) | 4.45 µM (inactive) | 2.25 µM (inactive) | 1.79 µM (inactive) | 2.28 µM (inactive) | 66.5 µM (inactive) | 7.94 µM (inactive) | 23.3 µM (inactive) | 7.4 µM (inactive) | 2.36 µM (inactive) | 1.74 µM (inactive) | 6.38 µM (inactive) | 4.12 µM (inactive) | 
O=C(NN1C(=O)c2ccccc2C1=O)c1ccccc1Nc1ccccc1C(=O)NN1C(=O)c2ccccc2C1=O | > 100 µM (inactive) | > 100 µM (inactive) | > 100 µM (inactive) | > 100 µM (inactive) | > 100 µM (inactive) | > 100 µM (inactive) | > 100 µM (inactive) | > 100 µM (inactive) | > 100 µM (inactive) |  | > 100 µM (inactive) |  | > 100 µM (inactive) | > 100 µM (inactive) | > 100 µM (inactive) | > 100 µM (inactive) | > 100 µM (inactive) | > 100 µM (inactive)
CCNc1nnc(-c2ccccc2Nc2ccccc2-c2nnc(NCC)s2)s1 | 20.9 µM (inactive) | 10.5 µM (inactive) | 13.4 µM (inactive) | 27.4 µM (inactive) | 9.77 µM (inactive) | 4.71 µM (inactive) | 5.92 µM (inactive) | 6.18 µM (inactive) | 21.6 µM (inactive) | 9.06 µM (inactive) | 18.9 µM (inactive) | 13.5 µM (inactive) | 17 µM (inactive) | 37.2 µM (inactive) | 13.6 µM (inactive) | 14 µM (inactive) | 18.3 µM (inactive) | 
COC1OC(COC(=O)NCCCCC(=O)C(F)(F)F)C(O)C(O)C1O (stereo not drawn) |  | > 100 µM (inactive) | > 100 µM (inactive) | > 100 µM (inactive) | > 100 µM (inactive) | > 100 µM (inactive) | > 100 µM (inactive) | > 100 µM (inactive) | > 100 µM (inactive) | > 100 µM (inactive) | > 100 µM (inactive) | > 100 µM (inactive) | > 100 µM (inactive) | > 100 µM (inactive) |  | > 100 µM (inactive) | > 100 µM (inactive) | > 100 µM (inactive)
Cc1cc(Cc2cc(C)c(NC(=O)C(=O)C3CCC4=C(SC5C=CC=CC5N4)C3=O)c(C(C)C)c2)cc(C(C)C)c1NC(=O)C(=O)C1CCC2=C(SC3C=CC=CC3N2)C1=O (stereo not drawn) | 52.7 µM (inactive) | 35.5 µM (inactive) | 74.8 µM (inactive) |  | 45.5 µM (inactive) | 41.3 µM (inactive) | > 100 µM (inactive) | 34 µM (inactive) | 44 µM (inactive) | > 100 µM (inactive) | 84.1 µM (inactive) | 64 µM (inactive) | 25.1 µM (inactive) | 55.7 µM (inactive) | 29.7 µM (inactive) | 41.4 µM (inactive) | 35 µM (inactive) | 40.6 µM (inactive)
COc1cc(/C=C2\N=C(c3ccccc3)N(c3nc4cc(C)c(C)cc4s3)C2=O)ccc1O | 23.3 µM (inactive) | 42.3 µM (inactive) | 44.8 µM (inactive) | 74 µM (inactive) | 26.3 µM (inactive) | 40.3 µM (inactive) | 21.9 µM (inactive) | 21.4 µM (inactive) | 20.4 µM (inactive) | > 100 µM (inactive) | 25.8 µM (inactive) | 40.7 µM (inactive) | 30.3 µM (inactive) | 35.3 µM (inactive) | 47.4 µM (inactive) |  | 23.7 µM (inactive) | 18.7 µM (inactive)
CN(C)C(=S)Oc1ccc2ccc(=O)oc2c1 | > 100 µM (inactive) | > 100 µM (inactive) | > 100 µM (inactive) | > 100 µM (inactive) | > 100 µM (inactive) | > 100 µM (inactive) | > 100 µM (inactive) | > 100 µM (inactive) | > 100 µM (inactive) | > 100 µM (inactive) | > 100 µM (inactive) | > 100 µM (inactive) | > 100 µM (inactive) |  | > 100 µM (inactive) | > 100 µM (inactive) | > 100 µM (inactive) | > 100 µM (inactive)
Cc1cn(C2OC(CO[Si](C)(C)C(C)(C)C)/C(=C\C#N)C2O[Si](C)(C)C(C)(C)C)c(=O)[nH]c1=O (stereo not drawn) |  | > 100 µM (inactive) | 92.5 µM (inactive) | > 100 µM (inactive) | 8.73 µM (inactive) | > 100 µM (inactive) | > 100 µM (inactive) |  | 7.53 µM (inactive) | > 100 µM (inactive) | 64.6 µM (inactive) | 41.6 µM (inactive) | 3.83 µM (inactive) | 1.93 µM (inactive) |  | > 100 µM (inactive) | 7.73 µM (inactive) | 
Cn1c(=O)c2c(nc(NCCNc3nc4c(c(=O)n(C)c(=O)n4C)n3C)n2C)n(C)c1=O | > 100 µM (inactive) | > 100 µM (inactive) | > 100 µM (inactive) | > 100 µM (inactive) | > 100 µM (inactive) | > 100 µM (inactive) | > 100 µM (inactive) | > 100 µM (inactive) | > 100 µM (inactive) |  | > 100 µM (inactive) | > 100 µM (inactive) | > 100 µM (inactive) | > 100 µM (inactive) | > 100 µM (inactive) | > 100 µM (inactive) | > 100 µM (inactive) | 

Reference: ChEMBL document CHEMBL1201862, “PubChem BioAssay data set” (2004)
